Data from PubChem BioAssay (NCI).
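Exposure lasted 48 hours, with cells grown in 96-well plates and compounds tested at five concentrations. The concentration for 50% growth inhibition is given as GI50. Definition used: TGI = concentration required for complete inhibition of growth.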

Key:
Test in all cases: NCI-60 cell line screen, 48 h
[1] = tested on: SNB-75 CNS
[2] = tested on: OVCAR-4 ovarian
[3] = tested on: MDA-MB-231 breast
[4] = tested on: BT-549 breast
[5] = tested on: SK-MEL-28 melanoma
[6] = tested on: HS 578T breast
[7] = tested on: NCI-H460 lung
[8] = tested on: EKVX NSCLC
[9] = tested on: NCI-H226 lung
[10] = tested on: MDA-MB-435
[11] = tested on: M14 melanoma
[12] = tested on: SK-MEL-2 melanoma
[13] = tested on: SF-539 CNS
[14] = tested on: SNB-19 CNS
[15] = tested on: MOLT-4 leukemia
[16] = tested on: HT29 colon
[17] = tested on: RXF 393 renal
[18] = tested on: COLO 205 colon
[19] = tested on: SK-OV-3 ovarian
[20] = tested on: SF-295 CNS
[21] = tested on: UO-31 renal
[22] = tested on: HCT-116 colon
[23] = tested on: PC-3 prostate
[24] = tested on: NCI/ADR-RES ovarian
[25] = tested on: HOP-92 NSCLC
[26] = tested on: ACHN renal
[27] = tested on: K-562 leukemia
[28] = tested on: HCT-15 colon
[29] = tested on: SF-268 CNS
[30] = tested on: HL-60(TB) leukemia
[31] = tested on: NCI-H522 lung
[32] = tested on: KM12 colon
[33] = tested on: HCC-2998 colon
[34] = tested on: OVCAR-3 ovarian
[35] = tested on: LOX IMVI melanoma
[36] = tested on: MALME-3M melanoma
[37] = tested on: CAKI-1 renal
[38] = tested on: T-47D breast
[39] = tested on: CCRF-CEM leukemia
[40] = tested on: NCI-H23 lung
[41] = tested on: RPMI-8226 leukemia
[42] = tested on: A498 renal
[43] = tested on: IGROV1 ovarian
[44] = tested on: DU-145 prostate
[45] = tested on: OVCAR-8 ovarian
[46] = tested on: SN12C renal
[47] = tested on: OVCAR-5 ovarian
[48] = tested on: SK-MEL-5 melanoma
[49] = tested on: TK-10 renal
[50] = tested on: SR leukemia
[51] = tested on: UACC-62 melanoma
[52] = tested on: 786-0 renal
[53] = tested on: HOP-62 NSCLC
[54] = tested on: UACC-257 melanoma

## CNc1cc2nc3cc(NC)c(C)cc3cc2cc1C
[1]
  GI50: 3750 nM
  TGI: 19400 nM
[2]
  GI50: 1030 nM
  TGI: 3260 nM
[3]
  GI50: 1080 nM
  TGI: 2880 nM
[4]
  GI50: 3480 nM
  TGI: 14300 nM
[5]
  GI50: 5910 nM
  TGI: 20500 nM
[6]
  GI50: 1620 nM
  TGI: 7600 nM
[7]
  GI50: 410 nM
  TGI: 1660 nM
[8]
  GI50: 1040 nM
  TGI: 8480 nM
[9]
  GI50: 810 nM
  TGI: 18800 nM
[10]
  GI50: 2480 nM
  TGI: 18300 nM
[11]
  GI50: 2240 nM
  TGI: 14100 nM
[12]
  GI50: 6000 nM
  TGI: 26200 nM
[13]
  GI50: 2060 nM
  TGI: 16200 nM
[14]
  GI50: 1480 nM
  TGI: 16600 nM
[15]
  GI50: 514 nM
  TGI: > 100000 nM
[16]
  GI50: 300 nM
  TGI: 1100 nM
[17]
  GI50: 1090 nM
  TGI: 2370 nM
[18]
  GI50: 640 nM
  TGI: 2350 nM
[19]
  GI50: 695 nM
  TGI: 12800 nM
[20]
  GI50: 1410 nM
  TGI: 13200 nM
[21]
  GI50: 365 nM
  TGI: 13300 nM
[22]
  GI50: 365 nM
  TGI: 1490 nM
[23]
  GI50: 1070 nM
  TGI: 15700 nM
[24]
  GI50: 1690 nM
  TGI: 9280 nM
[25]
  GI50: 1760 nM
  TGI: 19100 nM
[26]
  GI50: 965 nM
  TGI: 20800 nM
[27]
  GI50: 486 nM
  TGI: > 100000 nM
[28]
  GI50: 3700 nM
  TGI: 91100 nM
[29]
  GI50: 687 nM
  TGI: 10900 nM
[30]
  GI50: 2580 nM
  TGI: 15900 nM
[31]
  GI50: 552 nM
  TGI: 5060 nM
[32]
  GI50: 792 nM
  TGI: 2280 nM
[33]
  GI50: 1600 nM
  TGI: 14700 nM
[34]
  GI50: 1320 nM
  TGI: 10000 nM
[35]
  GI50: 446 nM
  TGI: 1790 nM
[36]
  GI50: 2700 nM
  TGI: 19800 nM
[37]
  GI50: 2880 nM
  TGI: 17100 nM
[38]
  GI50: 1100 nM
  TGI: 18400 nM
[39]
  GI50: 1080 nM
  TGI: 33300 nM
[40]
  GI50: 624 nM
  TGI: 3110 nM
[41]
  GI50: 1040 nM
  TGI: 5120 nM
[42]
  GI50: 1180 nM
  TGI: 3900 nM
[43]
  GI50: 562 nM
  TGI: 16200 nM
[44]
  GI50: 861 nM
  TGI: 11500 nM
[45]
  GI50: 754 nM
  TGI: 9830 nM
[46]
  GI50: 573 nM
  TGI: 10500 nM
[47]
  GI50: 2750 nM
  TGI: 20200 nM
[48]
  GI50: 2050 nM
  TGI: 14000 nM
[49]
  GI50: 3550 nM
  TGI: 16200 nM
[50]
  GI50: 530 nM
  TGI: > 100000 nM
[51]
  GI50: 8820 nM
  TGI: 34500 nM
[52]
  GI50: 683 nM
  TGI: 2050 nM
[53]
  GI50: 1300 nM
  TGI: 16000 nM
[54]
  GI50: 6830 nM
  TGI: 32300 nM
